Source: US20240025862A1, “SUBSTITUTED N-PHENYLURACILS AND SALTS THEREOF, AND USE THEREOF AS HERBICIDAL ACTIVE SUBSTANCES” (Bayer Aktiengesellschaft, priority 2020, published 2024)

Assays:
Assay type in all cases: in vivo
[1] = tested on: Matricaria inodora (MATIN); assay: Post-emergence herbicidal action, greenhouse pot test (also comparative test C)
Outline: (§1)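 Greenhouse pot plants in sandy loam were sprayed post-emergence at the one-leaf stage (2–3 weeks after sowing) with WP or EC formulations plus 0.5% additive at 600 l/ha water. Activity was rated visually after about 3 weeks versus untreated controls (100% = dead, 0% = like control); rates were 20 g/ha or less, and 5 g/ha or less in the comparative test.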

[2] = tested on: Alopecurus myosuroides (ALOMY); assay: as above; details: rated visually after about 3 weeks vs untreated controls, 100% = plants have died
Outline: as §1

Setaria viridis (SETVI) = assay: as above
Outline: as §1

[3] = tested on: Echinochloa crus-galli (ECHCG); assay: as above; details: for Post-emergence action at 1.25 g/ha against ECHCG in %: rated visually after about 3 weeks vs untreated controls, 100% = plants have died
Outline: as §1

Oryza sativa (ORYSA) = assay: Post-emergence crop plant compatibility, greenhouse pot test (also comparative test C); details: for Post-emergence action against ORYSA (crop plant compatibility): vs untreated controls
Outline: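 Visual damage versus untreated plants (0% = like control, 100% = plants died) was scored about 3 weeks after a post-emergence spray in greenhouse pots. Treatment: one-leaf stage, WP or EC in water at 600 l/ha with 0.5% additive; a/b/c mark different dosages on the same crop.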

Avena fatua (AVEFA) = assay: Post-emergence herbicidal action, greenhouse pot test; details: 20 g/ha, rated visually after about 3 weeks vs untreated controls, 100% = plants have died
Outline: (§2)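 Activity was scored by eye about 3 weeks after treatment against untreated plants, where 100% means dead plants and 0% means no difference. Plants at the one-leaf stage received a foliar spray of WP or EC formulations in water plus 0.5% additive (600 l/ha, up to 20 g/ha). Plants were grown in sandy loam pots in a greenhouse for 2–3 weeks before spraying.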

[4] = tested on: Pharbitis purpurea (PHBPU); assay: as above
Outline: as §2

[5] = tested on: Polygonum convolvulus (POLCO); assay: as above
Outline: as §2

Viola tricolor (VIOTR) = assay: as above
Outline: as §2

[6] = tested on: Abutilon theophrasti (ABUTH); assay: as above; details: rated visually after about 3 weeks vs untreated controls, 100% = plants have died
Outline: as §2

Veronica persica (VERPE) = assay: as above
Outline: as §2

Lolium rigidum (LOLRI) = assay: as above; details: dosage 20 g/ha
Outline: as §2

[7] = tested on: Amaranthus retroflexus (AMARE); assay: as above; details: rated visually after about 3 weeks vs untreated controls, 100% = plants have died
Outline: as §2

Zea mays (ZEAMX) = assay: Post-emergence crop plant compatibility, greenhouse pot test; details: vs untreated controls
Outline: (§3)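 Greenhouse pot test; post-emergence foliar spray at one-leaf stage, WP or EC in water + 0.5% additive, 600 l/ha. Visual rating after ~3 wk, % relative to untreated (0–100%).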

[8] = tested on: Triticum aestivum (TRZAS); assay: as above; details: vs untreated controls
Outline: as §3

Glycine max (GLXMA) = assay: as above
Outline: as §3

COCCOCCOC(=O)COc1ccccc1Oc1cc(-n2c(=O)cc(C(F)(F)F)n(C)c2=O)c(F)cc1[N+](=O)[O-] [I.6-23]
Post-emergence action against MATIN in % ([1]; dosage 1.25 g/ha): 80% | Post-emergence action against MATIN in % ([1]; dosage 5 g/ha): 100% | Post-emergence action against MATIN in % ([1]; dosage 20 g/ha): 100% | Post-emergence action at 5 g/ha against ALOMY in % ([2]; 5 g/ha): 80% | Post-emergence action at 20 g/ha against ALOMY in % ([2]; 20 g/ha): 90% | Post-emergence action against SETVI (Setaria viridis (SETVI); 20 g/ha): 100% | Post-emergence action against SETVI in % (Setaria viridis (SETVI); dosage 1.25 g/ha): 100% | Post-emergence action against SETVI in % (Setaria viridis (SETVI); dosage 5 g/ha): 100% | Post-emergence action at 1.25 g/ha against ECHCG in % [3]: 80% | Post-emergence action against ECHCG in % ([3]; dosage 5 g/ha): 90% | Post-emergence action against ECHCG in % ([3]; dosage 20 g/ha): 100% | Post-emergence action against ORYSA (crop plant compatibility) (Oryza sativa (ORYSA); 1.25 g/ha): 0% | Post-emergence action against ORYSA (crop plant compatibility) (Oryza sativa (ORYSA); 5 g/ha): 10% | Post-emergence action against ORYSA in % (Oryza sativa (ORYSA); 20 g/ha, crop plant compatibility): 20% | Post-emergence action at 20 g/ha against AVEFA in % (Avena fatua (AVEFA)): 90% | Post-emergence action against PHBPU in % ([4]; dosage 1.25 g/ha): 80% | Post-emergence action against PHBPU in % ([4]; dosage 5 g/ha): 90% | Post-emergence action against PHBPU in % ([4]; dosage 20 g/ha): 100% | Post-emergence action against POLCO in % ([5]; dosage 1.25 g/ha): 90% | Post-emergence action against POLCO in % ([5]; dosage 5 g/ha): 100% | Post-emergence action against POLCO in % ([5]; dosage 20 g/ha): 100% | Post-emergence action against VIOTR (Viola tricolor (VIOTR); 1.25 g/ha): 100% | Post-emergence action against VIOTR (Viola tricolor (VIOTR); 5 g/ha): 100% | Post-emergence action against VIOTR (Viola tricolor (VIOTR); 20 g/ha): 100% | Post-emergence action at 1.25 g/ha against ABUTH in % ([6]; 1.25 g/ha): 100% | Post-emergence action at 5 g/ha against ABUTH in % ([6]; 5 g/ha): 100% | Post-emergence action at 20 g/ha against ABUTH in % ([6]; 20 g/ha): 100% | Post-emergence action against VERPE (Veronica persica (VERPE); 1.25 g/ha): 100% | Post-emergence action against VERPE (Veronica persica (VERPE); 5 g/ha): 100% | Post-emergence action against VERPE (Veronica persica (VERPE); 20 g/ha): 100% | Post-emergence action against LOLRI in % (Lolium rigidum (LOLRI)): 90% | Post-emergence action at 1.25 g/ha against AMARE in % ([7]; 1.25 g/ha): 100% | Post-emergence action at 5 g/ha against AMARE in % ([7]; 5 g/ha): 100% | Post-emergence action at 20 g/ha against AMARE in % ([7]; 20 g/ha): 100% | Post-emergence action against ZEAMX (crop plant compatibility) (Zea mays (ZEAMX); 1.25 g/ha): 10% | Post-emergence action against ZEAMX (crop plant compatibility) (Zea mays (ZEAMX); 5 g/ha): 20% | Post-emergence action against TRZAS (crop plant compatibility) ([8]; 1.25 g/ha): 10% | Post-emergence action against TRZAS (crop plant compatibility) ([8]; 5 g/ha): 20% | Post-emergence action against TRZAS (crop plant compatibility) ([8]; 20 g/ha): 20% | Post-emergence action against GLXMA in % (Glycine max (GLXMA); 1.25 g/ha): 20%

Cn1c(C(F)(F)F)cc(=O)n(-c2cc(Oc3ccccc3OCC(=O)OCC#N)c([N+](=O)[O-])cc2F)c1=O [I.6-176, Cyanomethyl (2-{4-fluoro-5-[3-methyl-2,6-dioxo-4-(trifluoromethyl)-3,6-dihydropyrimidin-1(2H)-yl]-2-nitrophenoxy}phenoxy)acetate]
pest or weed control at 5 g/ha ([1]; Tripleurospermum inodorum, 504 h, dosage 5 g/ha, read-out: Post-emergence action against MATIN in %): 80% | pest or weed control at 20 g/ha ([1]; Tripleurospermum inodorum, 504 h, dosage 20 g/ha, read-out: Post-emergence action against MATIN in %): 100% | pest or weed control at 5 g/ha ([2]; Alopecurus myosuroides, 504 h, 5 g/ha, read-out: Post-emergence action at 5 g/ha against ALOMY in %): 80% | pest or weed control at 20 g/ha ([2]; Alopecurus myosuroides, 504 h, 20 g/ha, read-out: Post-emergence action at 20 g/ha against ALOMY in %): 90% | pest or weed control at 20 g/ha (Setaria viridis (SETVI); Setaria viridis, 504 h, 20 g/ha, read-out: Post-emergence action against SETVI): 100% | pest or weed control at 1.25 g/ha (Setaria viridis (SETVI); Setaria viridis, 504 h, dosage 1.25 g/ha, read-out: Post-emergence action against SETVI in %): 100% | pest or weed control at 5 g/ha (Setaria viridis (SETVI); Setaria viridis, 504 h, dosage 5 g/ha, read-out: Post-emergence action against SETVI in %): 100% | Post-emergence action at 1.25 g/ha against ECHCG in % [3]: 100% | pest or weed control at 5 g/ha ([3]; Echinochloa crus-galli, 504 h, dosage 5 g/ha, read-out: Post-emergence action against ECHCG in %): 100% | pest or weed control at 20 g/ha ([3]; Echinochloa crus-galli, 504 h, dosage 20 g/ha, read-out: Post-emergence action against ECHCG in %): 100% | Post-emergence action against ORYSA (crop plant compatibility) (Oryza sativa (ORYSA); 1.25 g/ha): 0% | Post-emergence action against ORYSA (crop plant compatibility) (Oryza sativa (ORYSA); 5 g/ha): 20% | pest or weed control at 20 g/ha (Avena fatua (AVEFA); Avena fatua, 504 h, read-out: Post-emergence action at 20 g/ha against AVEFA in %): 80% | pest or weed control at 1.25 g/ha ([4]; Ipomoea purpurea, 504 h, dosage 1.25 g/ha, read-out: Post-emergence action against PHBPU in %): 80% | pest or weed control at 5 g/ha ([4]; Ipomoea purpurea, 504 h, dosage 5 g/ha, read-out: Post-emergence action against PHBPU in %): 100% | pest or weed control at 20 g/ha ([4]; Ipomoea purpurea, 504 h, dosage 20 g/ha, read-out: Post-emergence action against PHBPU in %): 100% | pest or weed control at 20 g/ha ([5]; Fallopia convolvulus, 504 h, dosage 20 g/ha, read-out: Post-emergence action against POLCO in %): 100% | pest or weed control at 1.25 g/ha (Viola tricolor (VIOTR); Viola tricolor, 504 h, 1.25 g/ha, read-out: Post-emergence action against VIOTR): 100% | pest or weed control at 5 g/ha (Viola tricolor (VIOTR); Viola tricolor, 504 h, 5 g/ha, read-out: Post-emergence action against VIOTR): 100% | pest or weed control at 20 g/ha (Viola tricolor (VIOTR); Viola tricolor, 504 h, 20 g/ha, read-out: Post-emergence action against VIOTR): 100% | pest or weed control at 1.25 g/ha ([6]; Abutilon theophrasti, 504 h, 1.25 g/ha, read-out: Post-emergence action at 1.25 g/ha against ABUTH in %): 100% | pest or weed control at 5 g/ha ([6]; Abutilon theophrasti, 504 h, 5 g/ha, read-out: Post-emergence action at 5 g/ha against ABUTH in %): 100% | pest or weed control at 20 g/ha ([6]; Abutilon theophrasti, 504 h, 20 g/ha, read-out: Post-emergence action at 20 g/ha against ABUTH in %): 100% | pest or weed control at 1.25 g/ha (Veronica persica (VERPE); Veronica persica, 504 h, 1.25 g/ha, read-out: Post-emergence action against VERPE): 80% | pest or weed control at 5 g/ha (Veronica persica (VERPE); Veronica persica, 504 h, 5 g/ha, read-out: Post-emergence action against VERPE): 90% | pest or weed control at 20 g/ha (Veronica persica (VERPE); Veronica persica, 504 h, 20 g/ha, read-out: Post-emergence action against VERPE): 100% | pest or weed control at 20 g/ha (Lolium rigidum (LOLRI); Lolium rigidum, 504 h, read-out: Post-emergence action against LOLRI in %): 90% | pest or weed control at 1.25 g/ha ([7]; Amaranthus retroflexus, 504 h, 1.25 g/ha, read-out: Post-emergence action at 1.25 g/ha against AMARE in %): 100% | pest or weed control at 5 g/ha ([7]; Amaranthus retroflexus, 504 h, 5 g/ha, read-out: Post-emergence action at 5 g/ha against AMARE in %): 100% | pest or weed control at 20 g/ha ([7]; Amaranthus retroflexus, 504 h, 20 g/ha, read-out: Post-emergence action at 20 g/ha against AMARE in %): 100% | Post-emergence action against ZEAMX (crop plant compatibility) (Zea mays (ZEAMX); 1.25 g/ha): 10% | Post-emergence action against TRZAS (crop plant compatibility) ([8]; 1.25 g/ha): 20% | Post-emergence action against TRZAS (crop plant compatibility) ([8]; 5 g/ha): 20% | Post-emergence action against TRZAS (crop plant compatibility) ([8]; 20 g/ha): 20% | Post-emergence action against GLXMA in % (Glycine max (GLXMA); 1.25 g/ha): 20% | Post-emergence action against GLXMA in % (Glycine max (GLXMA); 5 g/ha): 20%
